Consider 2 compounds from ChEMBL document CHEMBL2074571, “The mouse Bcrp1/Mxr/Abcp gene: amplification and overexpression in cell lines selected for resistance to topotecan, mitoxantrone, or doxorubicin” (Cancer Res, 1999).

Common to all, as to assay type: functional, cell-based
In data set [1] the target is T1, Broad substrate specificity ATP-binding cassette transporter ABCG2 (Mus musculus, UniProt Q7TMS5).
T1 sequence (Q7TMS5 whole entry): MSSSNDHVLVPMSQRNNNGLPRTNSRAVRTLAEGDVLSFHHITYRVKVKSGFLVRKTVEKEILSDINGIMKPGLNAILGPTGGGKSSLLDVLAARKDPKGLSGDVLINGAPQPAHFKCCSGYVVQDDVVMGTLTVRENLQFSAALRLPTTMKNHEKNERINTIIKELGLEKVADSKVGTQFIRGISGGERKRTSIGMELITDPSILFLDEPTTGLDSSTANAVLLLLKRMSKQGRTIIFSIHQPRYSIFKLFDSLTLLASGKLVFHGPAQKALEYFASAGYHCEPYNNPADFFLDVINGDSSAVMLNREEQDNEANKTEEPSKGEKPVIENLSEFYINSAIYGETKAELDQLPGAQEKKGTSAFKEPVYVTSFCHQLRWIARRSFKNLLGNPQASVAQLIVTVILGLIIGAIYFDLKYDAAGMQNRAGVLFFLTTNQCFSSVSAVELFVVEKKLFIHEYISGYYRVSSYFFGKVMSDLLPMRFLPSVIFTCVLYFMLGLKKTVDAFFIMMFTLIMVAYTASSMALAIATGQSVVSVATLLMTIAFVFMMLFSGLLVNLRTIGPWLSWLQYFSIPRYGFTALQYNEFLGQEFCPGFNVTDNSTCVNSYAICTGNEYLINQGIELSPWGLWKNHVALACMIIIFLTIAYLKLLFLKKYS
The data set is described as follows: TP_TRANSPORTER: increase in mitoxantrone intracellular accumulation (Mitoxantrone: 20 uM, GF120918: 2 uM) in MEF3.8, M32 and T6400 cells. The following applies: mef3.8;m32;t6400, 2 µM.

Data set [2] deals with T1, Broad substrate specificity ATP-binding cassette transporter ABCG2. The data set is described as follows: TP_TRANSPORTER: increase in mitoxantrone intracellular accumulation (Mitoxantrone: 20 uM, GF120918: 2 uM) in KOT52 and D320 cells. Particulars: kot52;d320, 2 µM.
Data set [3] has the same target. Nature of the data set: TP_TRANSPORTER: cell accumulation in KOT52 and D320 cells.
The target is the same in data set [4]. The data set is described as follows: TP_TRANSPORTER: cell accumulation in MEF3.8, M32 and T6400 cells. The following applies: mef3.8;m32;t6400.

As for `COc1cc2c(cc1OC)CN(CCc1ccc(NC(=O)c3cccc4c(=O)c5cccc(OC)c5[nH]c34)cc1)CC2.Cl` [ELACRIDAR HYDROCHLORIDE], the Activity result in data set [1] and in data set [2] was “inhibitor [+]” in each case.
Consider `O=C1c2c(O)ccc(O)c2C(=O)c2c(NCCNCCO)ccc(NCCNCCO)c21` [MITOXANTRONE], for which the Activity entry in data set [3] and in data set [4] was “substrate [+]” each time.
